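48-hour exposure; five concentrations; linearly interpolated endpoints. TGI is the concentration that stops growth completely.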
Columns and labels:
Assay in all cases: NCI-60 cell line screen, 48 h
[1] = tested on: MDA-N
[2] = tested on: MDA-MB-435
[3] = tested on: UO-31 renal
[4] = tested on: NCI/ADR-RES ovarian
[5] = tested on: OVCAR-4 ovarian
[6] = tested on: MCF7 breast
[7] = tested on: OVCAR-8 ovarian
[8] = tested on: SN12C renal
[9] = tested on: BT-549 breast
[10] = tested on: SK-MEL-5 melanoma
[11] = tested on: U251 CNS
[12] = tested on: SK-MEL-2 melanoma
[13] = tested on: SNB-75 CNS
[14] = tested on: SK-MEL-28 melanoma
[15] = tested on: MDA-MB-231 breast
[16] = tested on: SF-539 CNS
[17] = tested on: CCRF-CEM leukemia

| Compound | TGI [1] [µM] | TGI [2] [µM] | TGI [3] [µM] | TGI [4] [µM] | TGI [5] [µM] | TGI [6] [µM] | TGI [7] [µM] | TGI [8] [µM] | TGI [9] [µM] | TGI [10] [µM] | TGI [11] [µM] | TGI [12] [µM] | TGI [13] [µM] | TGI [14] [µM] | TGI [15] [µM] | TGI [16] [µM] | TGI [17] [µM] |
| --- | --- | --- | --- | --- | --- | --- | --- | --- | --- | --- | --- | --- | --- | --- | --- | --- | --- |
| COC(=O)[C@@H](NC(=O)N(CCC#N)CCCN(C(=O)N[C@H](Cc1ccccc1)C(=O)OC)c1ccccc1)C(C)C | > 100 | > 100 | > 100 | > 100 | > 100 | > 100 | > 100 | > 100 | > 100 | > 100 | > 100 | > 100 | > 100 | > 100 | > 100 | > 100 | > 100 |
| C=CC[C@@]1([C@H](C=C)COCc2ccc(OC)cc2)CC[C@]2(C)OC(C)(C)[C@@H](c3ccccc3)N2C1=S | > 100 | > 100 | > 100 | > 100 | > 100 | > 100 | > 100 | > 100 | > 100 | 61.8 | > 100 | 62.3 | > 100 | > 100 | > 100 | > 100 | > 100 |
| NC1CC(Cl)c2c(Cl)sc(Cl)c21 (stereo not given) | > 100 | > 100 | > 100 | > 100 | > 100 | > 100 | > 100 | > 100 | > 100 | > 100 | > 100 | > 100 | > 100 | > 100 | > 100 | > 100 | > 100 |
| O=P1(c2ccccc2)C(c2ccccc2)=CC=C1c1ccccc1 | 62.1 | 36.4 | > 100 | > 100 | > 100 | 66.6 | 43.4 | > 100 | > 100 | 28.4 | 43.8 | 40.9 | 60.1 | > 100 | > 100 | > 100 | 62.7 |
| CCCCN(Cc1ccccc1)C(=NC#N)N(Cc1ccccc1)Cc1ccccc1 | 59.9 | 59.3 | > 52.4 | 59.7 | > 100 | > 100 | > 100 | > 80.5 | 62.8 | 29.4 | 81.4 | 37.6 | 71.4 | > 100 | 51.7 | 46.8 | > 100 |
